≈ marks a conversion by molar mass, not a printed value. Where a name gives a salt, the structure may show the parent alone.
Columns and labels:
Format in all cases: physicochemical
[1] = Solubility in 2-pyrrolidone; conditions: 25° C., mixed for 30 min, Licofelone in supernatant by HPLC
Protocol: Approx. 500 mg Licofelone (free acid) or the corresponding salt (examples 1A and 2) were suspended in 1 ml 2-pyrrolidone and mixed for 30 min. The temperature was maintained at 25° C. After centrifugation the concentration of Licofelone in the supernatant was determined by HPLC with UV detection.

[2] = Solubility in Fasted State Simulated Intestinal Fluid (FaSSIF); conditions: after 15 min, HPLC; for solubility in 30 ml FaSSIF, conc.: 30 ml FaSSIF pH 6.5, approx. 50 mg (as free acid); for solubility in 100 ml FaSSIF, conc.: 100 ml FaSSIF pH 6.5, approx. 50 mg (as free acid)
Protocol: FaSSIF was prepared according to the literature (e.g. Marques M, Dissolution Technologies, May 2004). […] The pH value was adjusted to 6.5 using 1 N NaOH. The ready-to-use FaSSIF was prepared by dissolving 3.3 g sodium taurocholate in 500 ml blank FaSSIF. Then, 11.8 ml of a solution of 100 mg/ml lecithin in dichloromethane was added and the thereafter, the solvent dichloromethane was removed under vacuum at 40° C. Thereafter the clear solution was transferred into a graduated 2 l flask and made up to volume with blank FaSSIF.
Solubility studies were performed with Licofelone (free acid), Licofelone tromethamol salt (example 2) and Licofelone choline salt (example 1A). The test articles were placed in a beaker, FaSSIF and a magnetic stirring bar were added and the mixture was stirred using a magnetic stirrer. After 15 min, samples were withdrawn, filtered and the clear filtrate was analyzed by HPLC to determine the concentration of Licofelone.
The dissolution test was performed in 100 ml FaSSIF and 30 ml FaSSIF. The lower volume was selected in order to simulate the physiological ratio between drug and intestinal fluid volume.

[3] = Storage stability at elevated temperatures (sum of known and unknown impurities)
Protocol: The raw materials (a) Licofelone, (b) Licofelone choline salt (example 1A) and (c) Licofelone tromethamine salt (example 2) were stored in open containers at 40, 50, 60 and 70° C. as well as at 40° C. with 75% relative humidity. Samples were analyzed after storage periods of 4 and 8 weeks. A validated method was applied for quantification of the five known impurities as well as of unknown impurities.

[4] = stored at elevated temperatures for several weeks

Structure (SMILES)	solubility [1] [µg/mL]	solubility in 30 ml FaSSIF, conc. [2] [µg/mL]	solubility in 100 ml FaSSIF, conc. [2] [µg/mL]	stability on storage ([3]; stored at moderately elevated temperatures for several weeks)	stability on storage [3, 4]
CC1(C)Cc2c(-c3ccccc3)c(-c3ccc(Cl)cc3)c(CC(=O)O)n2C1 [Licofelone choline salt, 6-(4-chlorophenyl)-2,2-dimethyl-7-phenyl-2,3-dihydro-1H-pyrrolizin-5-ylacetic acid choline salt]	274000	222	228	more stable than the free acid	–
CC1(C)Cc2c(-c3ccccc3)c(-c3ccc(Cl)cc3)c(CC(=O)O)n2C1 [Licofelone (free acid), 6-(4-chlorophenyl)-2,2-dimethyl-7-phenyl-2,3-dihydro-1H-pyrrolizin-5-ylacetic acid, reference compound]	47000 (≈ 124000 µM)	7 (≈ 18.4 µM)	7 (≈ 18.4 µM)	–	undergoes degradation
CC1(C)Cc2c(-c3ccccc3)c(-c3ccc(Cl)cc3)c(CC(=O)O)n2C1 [Licofelone tromethamine salt, 6-(4-chlorophenyl)-2,2-dimethyl-7-phenyl-2,3-dihydro-1H-pyrrolizin-5-ylacetic acid tromethamine salt]	66000	149	165	–	more stable than the free acid and the choline salt

From US8519155B2, “Choline and tromethamine salt of licofelone” (c-a-i-r biosciences GmbH, priority 2008, dated 2013)
